In ChEMBL document CHEMBL1201862, “PubChem BioAssay data set” (2004):
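Tested at 5 concentrations; 48 h exposure; 96-well plates; endpoints linearly interpolated, else capped at highest concentration. GI50 = concentration required for 50% inhibition of growth.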 The source made the active and inactive calls. No stated cut-off is given here; in the data, active = GI50 up to about 1.1 µM and inactive = higher.

Legend:
Assay in all cases: inhibition of tumour cell growth, NCI panel, 48 h
IGROV-1 = tested on: IGROV-1
MOLT-4 = tested on: MOLT-4
UACC-257 = tested on: UACC-257
SF-539 = tested on: SF-539
COLO 205 = tested on: COLO 205
SR = tested on: SR
PC-3 = tested on: PC-3
K562 = tested on: K562
LOX IMVI = tested on: LOX IMVI
BT-549 = tested on: BT-549
HOP-92 = tested on: HOP-92
OVCAR-4 = tested on: OVCAR-4
A549 = tested on: A549
UO-31 = tested on: UO-31
SK-MEL-5 = tested on: SK-MEL-5
OVCAR-5 = tested on: OVCAR-5
OVCAR-8 = tested on: OVCAR-8
MDA-N = tested on: MDA-N
HL-60 = tested on: HL-60
MCF7 = tested on: MCF7
Malme-3M = tested on: Malme-3M
RXF 393 = tested on: RXF 393
NCI-H522 = tested on: NCI-H522
KM12 = tested on: KM12
MDA-MB-435 = tested on: MDA-MB-435
A498 = tested on: A498
SNB-19 = tested on: SNB-19
UACC-62 = tested on: UACC-62
T47D = tested on: T47D
SF-295 = tested on: SF-295
CCRF-CEM = tested on: CCRF-CEM
NCI-H226 = tested on: NCI-H226
TK-10 = tested on: TK-10
SF-268 = tested on: SF-268
Hs-578T = tested on: Hs-578T
786-0 = tested on: 786-0
ACHN = tested on: ACHN
U-251 = tested on: U-251
SW-620 = tested on: SW-620
HOP-62 = tested on: HOP-62
DU-145 = tested on: DU-145
SK-MEL-28 = tested on: SK-MEL-28
M14 = tested on: M14
HCT-116 = tested on: HCT-116
NCI-H460 = tested on: NCI-H460
HT-29 = tested on: HT-29
SK-MEL-2 = tested on: SK-MEL-2
NCI/ADR-RES = tested on: NCI/ADR-RES
SN12C = tested on: SN12C
NCI-H23 = tested on: NCI-H23
EKVX = tested on: EKVX
CAKI-1 = tested on: CAKI-1
RPMI-8226 = tested on: RPMI-8226
HCC 2998 = tested on: HCC 2998
MDA-MB-231 = tested on: MDA-MB-231
OVCAR-3 = tested on: OVCAR-3
HCT-15 = tested on: HCT-15
SK-OV-3 = tested on: SK-OV-3
SNB-75 = tested on: SNB-75

With `O=c1oc2ccc([N+](=O)[O-])cc2cc1Br` the GI50 (IGROV-1) was > 100 µM (inactive), the GI50 (MOLT-4) was > 100 µM (inactive) and the GI50 (UACC-257) was > 100 µM (inactive). For the same compound, the GI50 (SF-539) was > 100 µM (inactive), the GI50 (COLO 205) was > 100 µM (inactive) and the GI50 (SR) was 47.3 µM (inactive). For the same compound, the GI50 (PC-3) was > 100 µM (inactive), the GI50 (K562) was > 100 µM (inactive) and the GI50 (LOX IMVI) was 61.2 µM (inactive). The GI50 (BT-549) was > 100 µM (inactive), the GI50 (HOP-92) was 86.3 µM (inactive) and the GI50 (OVCAR-4) was > 100 µM (inactive). For the same compound, the GI50 (A549) was > 100 µM (inactive), the GI50 (UO-31) was > 100 µM (inactive) and the GI50 (SK-MEL-5) was > 100 µM (inactive). For the same compound, the GI50 (OVCAR-5) was > 100 µM (inactive), the GI50 (OVCAR-8) was > 100 µM (inactive) and the GI50 (MDA-N) was > 100 µM (inactive). For the same compound, the GI50 (HL-60) was 39 µM (inactive), the GI50 (MCF7) was > 100 µM (inactive) and the GI50 (Malme-3M) was > 100 µM (inactive). The GI50 (RXF 393) was 21.7 µM (inactive), the GI50 (NCI-H522) was > 100 µM (inactive) and the GI50 (KM12) was > 100 µM (inactive). For the same compound, the GI50 (MDA-MB-435) was > 100 µM (inactive), the GI50 (A498) was > 100 µM (inactive) and the GI50 (SNB-19) was > 100 µM (inactive). For the same compound, the GI50 (UACC-62) was 31.6 µM (inactive), the GI50 (T47D) was 70.6 µM (inactive) and the GI50 (SF-295) was > 100 µM (inactive). The GI50 (CCRF-CEM) was 57.5 µM (inactive), the GI50 (NCI-H226) was > 100 µM (inactive) and the GI50 (TK-10) was > 100 µM (inactive). For the same compound, the GI50 (SF-268) was 27.4 µM (inactive), the GI50 (Hs-578T) was > 100 µM (inactive) and the GI50 (786-0) was > 100 µM (inactive). The GI50 (ACHN) was 78.5 µM (inactive), the GI50 (U-251) was > 100 µM (inactive) and the GI50 (SW-620) was > 100 µM (inactive). The GI50 (HOP-62) was 71.6 µM (inactive), the GI50 (DU-145) was > 100 µM (inactive) and the GI50 (SK-MEL-28) was > 100 µM (inactive). The GI50 (M14) was 35.7 µM (inactive), the GI50 (HCT-116) was > 100 µM (inactive) and the GI50 (NCI-H460) was > 100 µM (inactive). The GI50 (HT-29) was > 100 µM (inactive), the GI50 (SK-MEL-2) was > 100 µM (inactive) and the GI50 (NCI/ADR-RES) was > 100 µM (inactive). The GI50 (SN12C) was > 100 µM (inactive), the GI50 (NCI-H23) was > 100 µM (inactive) and the GI50 (EKVX) was > 100 µM (inactive). For the same compound, the GI50 (CAKI-1) was > 100 µM (inactive), the GI50 (RPMI-8226) was 53.7 µM (inactive) and the GI50 (HCC 2998) was > 100 µM (inactive). For the same compound, the GI50 (MDA-MB-231) was > 100 µM (inactive) and the GI50 (OVCAR-3) was > 100 µM (inactive).
For `CCOC(=O)c1sc2nc(SC)nc3c2c1N=CN3c1ccccc1Cl`, the GI50 (IGROV-1) was 68.1 µM (inactive), the GI50 (MOLT-4) was 61.7 µM (inactive) and the GI50 (UACC-257) was > 100 µM (inactive). The GI50 (COLO 205) was > 100 µM (inactive), the GI50 (SR) was 26.9 µM (inactive) and the GI50 (PC-3) was > 100 µM (inactive). The GI50 (K562) was 72.3 µM (inactive), the GI50 (LOX IMVI) was > 100 µM (inactive) and the GI50 (BT-549) was 26.7 µM (inactive). For the same compound, the GI50 (HOP-92) was 22.6 µM (inactive), the GI50 (OVCAR-4) was 17.2 µM (inactive) and the GI50 (A549) was 71.3 µM (inactive). The GI50 (UO-31) was > 100 µM (inactive), the GI50 (SK-MEL-5) was 52 µM (inactive) and the GI50 (OVCAR-5) was > 100 µM (inactive). The GI50 (OVCAR-8) was 52.6 µM (inactive), the GI50 (MDA-N) was > 100 µM (inactive) and the GI50 (HL-60) was 79.8 µM (inactive). For the same compound, the GI50 (MCF7) was > 100 µM (inactive), the GI50 (Malme-3M) was 35 µM (inactive) and the GI50 (RXF 393) was 18.1 µM (inactive). The GI50 (NCI-H522) was 20.5 µM (inactive), the GI50 (HCT-15) was over 100 µM and the GI50 (KM12) was > 100 µM (inactive). For the same compound, the GI50 (MDA-MB-435) was > 100 µM (inactive), the GI50 (A498) was 10.1 µM (inactive) and the GI50 (SNB-19) was 29.4 µM (inactive). For the same compound, the GI50 (UACC-62) was 33 µM (inactive), the GI50 (T47D) was 58.5 µM (inactive) and the GI50 (SF-295) was 32.7 µM (inactive). The GI50 (CCRF-CEM) was 65.3 µM (inactive), the GI50 (NCI-H226) was > 100 µM (inactive) and the GI50 (TK-10) was > 100 µM (inactive). For the same compound, the GI50 (SF-268) was 24.1 µM (inactive), the GI50 (Hs-578T) was 5.58 µM (inactive) and the GI50 (786-0) was 14.1 µM (inactive). For the same compound, the GI50 (ACHN) was 19.4 µM (inactive), the GI50 (U-251) was 21.3 µM (inactive) and the GI50 (SW-620) was > 100 µM (inactive). The GI50 (HOP-62) was 6.98 µM (inactive), the GI50 (DU-145) was > 100 µM (inactive) and the GI50 (SK-MEL-28) was > 100 µM (inactive). The GI50 (M14) was 62.1 µM (inactive), the GI50 (HCT-116) was 40.9 µM (inactive) and the GI50 (NCI-H460) was > 100 µM (inactive). The GI50 (HT-29) was > 100 µM (inactive), the GI50 (SK-MEL-2) was 49.2 µM (inactive) and the GI50 (NCI/ADR-RES) was > 100 µM (inactive). The GI50 (SN12C) was > 100 µM (inactive), the GI50 (NCI-H23) was 92.3 µM (inactive) and the GI50 (EKVX) was 55.3 µM (inactive). The GI50 (SK-OV-3) was 31.4 µM (inactive), the GI50 (SNB-75) was 14.4 µM (inactive) and the GI50 (CAKI-1) was 26.2 µM (inactive). For the same compound, the GI50 (RPMI-8226) was > 100 µM (inactive), the GI50 (HCC 2998) was > 100 µM (inactive) and the GI50 (MDA-MB-231) was 30.9 µM (inactive). The GI50 (OVCAR-3) was 32.6 µM (inactive).
